Data set [1] relates to binding of 125I-Stx2 to HeLa cells. Type of data set: cell-based.
The subject of data set [2] is Stx2 cytotoxicity toward HeLa cells.
Data set [3] relates to recombinant histidine-tagged Stx2B subunit (2BH). It is filed as binding, Escherichia coli.

Regarding HNPMSFPTPRLY [HN-11], the “inhibitory effect on the uptake of Stx2” value in data set [1] is on record as “almost no inhibitory effect”. Further, the “inhibitory effect on Stx2 cytotoxicity” value in data set [2] is recorded as “Almost no inhibitory effect”. The “concentration dependence of binding to 2BH” value in data set [3] is listed as “did not significantly change”.
